According to US7138361B2, “Herbicidal heterocycles” (E. I. du Pont de Nemours and Company, priority 2000, dated 2006):

What was measured:
Assay type in all cases: in vivo
[1] = system: smallflower flatsedge (Cyperus difformis); assay: Test C flooded paddy test; conditions: for Flatsedge plant response rating: Flooded Paddy, scale 0 to 100, 0 no effect, 100 complete control; for Plant response rating, Flatsedge: flooded paddy test, scale 0 to 100 (0 no effect, 100 complete control)
How it was run: (§1)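 Ratings come from visual comparison with control plants after 12 to 14 days in the greenhouse. Each species was at the 2-leaf stage when the flooded paddy was treated. Scores run from 0, meaning no effect, to 100, meaning complete control.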

[2] = system: barnyardgrass (Echinochloa crus-galli); assay: Test C flooded paddy test; conditions: for Barnyardgrass plant response rating: Flooded Paddy, scale 0 to 100, 0 no effect, 100 complete control; for Plant response rating, Barnyardgrass: flooded paddy test, scale 0 to 100 (0 no effect, 100 complete control)
How it was run: as §1

[3] = system: duck salad (Heteranthera limosa); assay: Test C flooded paddy test; conditions: for Ducksalad plant response rating: Flooded Paddy, scale 0 to 100, 0 no effect, 100 complete control; for Plant response rating, Ducksalad: flooded paddy test, scale 0 to 100 (0 no effect, 100 complete control)
How it was run: as §1

Sunflower [4] = assay: Test C preemergence; conditions: Rate 250 g/ha, visual evaluation after 12 to 14 days
corn (Zea mays) = assay: Test C preemergence
From the text: (§2) Seeds of plant species selected from bermudagrass (Cynodon dactylon), Surinam grass (Brachiaria decumbens), cocklebur (Xanthium strumarium), corn (Zea mays), crabgrass (Digitaria sanguinalis), woolly cupgrass (Eriochloa villosa), giant foxtail (Setaria faberii), goosegrass (Eleusine indica), johnsongrass (Sorghum halepense), kochia (Kochia scoparia), lambsquarters (Chenopodium album), morningglory (Ipomoea hederacea), yellow nutsedge (Cyperus esculentus), pigweed (Amaranthus retroflexus), common ragweed (Ambrosia elatior), soybean (Glycine max) and velvetleaf (Abutilon theophrasti) were planted and treated preemergence with test chemicals formulated in a non-phytotoxic solvent mixture which included a surfactant.
(§3) At the same time, plants selected from these crop and weed species and also winter barley (Hordeum vulgare), blackgrass (Alopecurus myosuroides), canary grass (Phalaris minor), chickweed (Stellaria media), downy brome (Bromus tectorum), green foxtail (Setaria viridis), Italian ryegrass (Lolium multiflorum), wheat (Triticum aestivum), wild oat (Avena fatua) and windgrass (Apera spica-venti) were treated with postemergence applications of some of the test chemicals formulated in the same manner. Plants ranged in height from 2 to 18 cm (1- to 4-leaf stage) for postemergence treatments. Plant species in the flooded paddy test consisted of rice (Oryza saliva), smallflower flatsedge (Cyperus difformis), duck salad (Heteranthera limosa) and barnyardgrass (Echinochloa crus-galli) grown to the 2-leaf stage for testing. Treated plants and controls were maintained in a greenhouse for 12 to 14 days, after which time all species were compared to controls and visually evaluated. Plant response ratings, summarized in Table C, are based on a scale of 0 to 100 where 0 is no effect and 100 is complete control. A dash (-) response means no test result.

[5] = system: goosegrass (Eleusine indica); assay: Test C preemergence
From the text: as §2, §3

[6] = system: bermudagrass (Cynodon dactylon); assay: Test C preemergence
From the text: as §2, §3

[7] = system: velvetleaf (Abutilon theophrasti); assay: Test C preemergence
From the text: as §2, §3

soybean (Glycine max) = assay: Test C preemergence
From the text: as §2, §3

[8] = system: yellow nutsedge (Cyperus esculentus); assay: Test C preemergence
From the text: as §2, §3

[9] = system: crabgrass (Digitaria sanguinalis); assay: Test C preemergence
From the text: as §2, §3

[10] = system: Surinam grass (Brachiaria decumbens); assay: Test C preemergence
From the text: as §2, §3

[11] = system: woolly cupgrass (Eriochloa villosa); assay: Test C preemergence
From the text: as §2, §3

[12] = system: johnsongrass (Sorghum halepense); assay: Test C preemergence
From the text: as §2, §3

[13] = system: giant foxtail (Setaria faberii); assay: Test C preemergence
From the text: as §2, §3

[14] = system: lambsquarters (Chenopodium album); assay: Test C preemergence
From the text: as §2, §3

[15] = system: pigweed (Amaranthus retroflexus); assay: Test C preemergence
From the text: as §2, §3

Sunflower [16] = assay: Test C preemergence
From the text: as §2, §3

[17] = system: cocklebur (Xanthium strumarium); assay: Test C preemergence
From the text: as §2, §3

Nightshade = assay: Test C preemergence
From the text: as §2, §3

[18] = system: morningglory (Ipomoea hederacea); assay: Test C preemergence
From the text: as §2, §3

[19] = Preemergence, Rate 500 g/ha, scale 0 to 100
[20] = Rate 62 g/ha, scale 0 to 100, 0 no effect, 100 complete control
[21] = preemergence, Rate 250 g/ha, visual evaluation after 12 to 14 days
[22] = preemergence, Rate 125 g/ha, scale 0 to 100, 0 no effect, 100 complete control

Structure (SMILES): CC(C)c1ccn(C2SCN(c3cccc(OC(F)(F)F)c3)C2=O)n1 (stereo not drawn) [Compound 31]
- Flatsedge plant response rating ([1]; Rate 250 g/ha): 100
- Flatsedge plant response rating ([1]; Rate 500 g/ha): 100
- Plant response rating, Flatsedge ([1]; Rate 62 g/ha): 100
- Plant response rating, Flatsedge ([1]; Rate 125 g/ha): 100
- Barnyardgrass plant response rating ([2]; Rate 250 g/ha): 90
- Barnyardgrass plant response rating ([2]; Rate 500 g/ha): 100
- Plant response rating, Barnyardgrass ([2]; Rate 62 g/ha): 80
- Plant response rating, Barnyardgrass ([2]; Rate 125 g/ha): 80
- Ducksalad plant response rating ([3]; Rate 250 g/ha): 100
- Ducksalad plant response rating ([3]; Rate 500 g/ha): 100
- Plant response rating, Ducksalad ([3]; Rate 62 g/ha): 70
- Plant response rating, Ducksalad ([3]; Rate 125 g/ha): 90
- Plant response rating (0 to 100), Sunflower (Sunflower [4]): 40
- Plant response rating, Corn (corn (Zea mays); [19]): 60
- Plant response rating, Corn (corn (Zea mays); [20]): 40
- Plant response rating (0 to 100), Corn (corn (Zea mays); [21]): 40
- Plant response rating, Corn (corn (Zea mays); [22]): 40
- Plant response rating, Goosegrass [5, 19]: 100
- Plant response rating, Goosegrass [5, 20]: 100
- Plant response rating (0 to 100), Goosegrass [5, 21]: 100
- Plant response rating, Goosegrass [5, 22]: 100
- Plant response rating, Bermudagrass [6, 19]: 100
- Plant response rating, Bermudagrass [6, 20]: 90
- Plant response rating (0 to 100 where 0 is no effect and 100 is complete control), Bermudagrass [6, 21]: 100
- Plant response rating, Bermudagrass [6, 22]: 100
- Plant response rating, Velvetleaf [7, 19]: 30
- Plant response rating, Velvetleaf [7, 20]: 0
- Plant response rating (0 to 100), Velvetleaf [7, 21]: 30
- Plant response rating, Velvetleaf [7, 22]: 0
- Plant response rating, Soybean (soybean (Glycine max); [19]): 0
- Plant response rating, Soybean (soybean (Glycine max); [20]): 0
- Plant response rating (0 to 100), Soybean (soybean (Glycine max); [21]): 0
- Plant response rating, Soybean (soybean (Glycine max); [22]): 0
- Plant response rating, Nutsedge [8, 19]: 90
- Plant response rating, Nutsedge [8, 20]: 40
- Plant response rating (0 to 100), Nutsedge [8, 21]: 70
- Plant response rating, Nutsedge [8, 22]: 50
- Plant response rating, Crabgrass [9, 19]: 100
- Plant response rating, Crabgrass [9, 20]: 100
- Plant response rating (0 to 100), Crabgrass [9, 21]: 100
- Plant response rating, Crabgrass [9, 22]: 100
- Plant response rating, Surinam grass [10, 19]: 70
- Plant response rating, Surinam grass [10, 20]: 50
- Plant response rating (0 to 100), Surinam grass [10, 21]: 60
- Plant response rating, Surinam grass [10, 22]: 50
- Plant response rating, Cupgrass, Woolly [11, 19]: 100
- Plant response rating, Cupgrass, Woolly [11, 20]: 50
- Plant response rating (0 to 100), Cupgrass, Woolly [11, 21]: 90
- Plant response rating, Cupgrass, Woolly [11, 22]: 60
- Plant response rating, Johnsongrass [12, 19]: 100
- Plant response rating, Johnsongrass [12, 20]: 30
- Plant response rating (0 to 100), Johnsongrass [12, 21]: 90
- Plant response rating, Johnsongrass [12, 22]: 60
- Plant response rating, Foxtail, Giant [13, 19]: 100
- Plant response rating, Foxtail, Giant [13, 20]: 40
- Plant response rating (0 to 100), Foxtail, Giant [13, 21]: 60
- Plant response rating, Foxtail, Giant [13, 22]: 50
- Plant response rating, Lambsquarters [14, 19]: 100
- Plant response rating, Lambsquarters [14, 20]: 100
- Plant response rating (0 to 100), Lambsquarters [14, 21]: 100
- Plant response rating, Lambsquarters [14, 22]: 100
- Plant response rating, Pigweed [15, 19]: 90
- Plant response rating, Pigweed [15, 20]: 30
- Plant response rating (0 to 100), Pigweed [15, 21]: 80
- Plant response rating, Pigweed [15, 22]: 100
- Plant response rating, Sunflower (Sunflower [16]; [20]): 20
- Plant response rating, Sunflower (Sunflower [16]; Rate 500 g/ha, scale 0 to 100): 40
- Plant response rating, Cocklebur [17, 19]: 30
- Plant response rating, Cocklebur [17, 20]: 0
- Plant response rating (0 to 100), Cocklebur [17, 21]: 30
- Plant response rating, Cocklebur [17, 22]: 0
- Plant response rating, Nightshade (Nightshade; [20]): 80
- Plant response rating, Nightshade (Nightshade; Rate 125 g/ha, scale 0 to 100, 0 no effect, 100 complete control): 90
- Plant response rating, Nightshade (Nightshade; Rate 500 g/ha, scale 0 to 100): 100
- Plant response rating, Morningglory [18, 19]: 50
- Plant response rating, Morningglory [18, 20]: 30
- Plant response rating (0 to 100), Morningglory [18, 21]: 40
- Plant response rating, Morningglory [18, 22]: 30
